19 compounds from ChEMBL document CHEMBL1136157, “Synthesis of 3a,4-dihydro-3H-[1]benzopyrano[4,3-c]isoxazoles, displaying combined 5-HT uptake inhibiting and alpha(2)-adrenoceptor antagonistic activities: a novel series of potential antidepressants” (Bioorg Med Chem Lett, 2003) can be followed below.

Each structure is given as a SMILES string.

This test deals with Sodium-dependent serotonin transporter (Homo sapiens) (UniProt P31645). The test is described as follows: In vitro binding affinity towards human serotonin transporter.
Sodium-dependent serotonin transporter (Homo sapiens), sequence (P31645 whole entry, looked up): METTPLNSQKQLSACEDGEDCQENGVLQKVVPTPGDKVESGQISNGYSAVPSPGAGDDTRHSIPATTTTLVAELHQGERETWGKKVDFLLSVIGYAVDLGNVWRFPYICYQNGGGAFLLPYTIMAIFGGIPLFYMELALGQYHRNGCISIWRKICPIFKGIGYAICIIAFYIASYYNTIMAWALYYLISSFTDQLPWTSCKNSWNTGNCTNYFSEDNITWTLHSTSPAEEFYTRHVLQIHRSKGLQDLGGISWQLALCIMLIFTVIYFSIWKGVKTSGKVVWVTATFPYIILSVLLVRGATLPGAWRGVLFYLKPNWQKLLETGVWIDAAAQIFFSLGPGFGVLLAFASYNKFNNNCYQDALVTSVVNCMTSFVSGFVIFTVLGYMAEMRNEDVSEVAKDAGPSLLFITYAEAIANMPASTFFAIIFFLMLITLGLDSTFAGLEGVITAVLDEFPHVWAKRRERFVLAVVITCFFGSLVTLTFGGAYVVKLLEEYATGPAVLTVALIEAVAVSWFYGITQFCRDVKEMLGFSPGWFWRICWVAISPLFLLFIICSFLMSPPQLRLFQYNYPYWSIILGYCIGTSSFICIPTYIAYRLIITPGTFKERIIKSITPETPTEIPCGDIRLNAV

Take `COc1cc2c(cc1OC)C1=NOC(CN3CCN(C/C=C(\C)c4ccccc4)CC3)C1CO2` (centres undefined): the affinity, expressed as Ki, was 10 nM.

Compound `COc1cc2c(cc1OC)C1=NOC(CN3CCN(CC4=Cc5ccccc5C4)CC3)C1CO2` (centres undefined) came in with a Ki of 4.1 nM.

Regarding `COc1cc2c(cc1OC)C1=NOC(CN3CCN(CCC(=O)c4ccccc4)CC3)C1CO2` (centres undefined), affinity was put at a Ki of 123 nM.

`COc1cc2c(cc1OC)C1=NO[C@@H](CN3CCN(C/C=C\c4ccccc4)CC3)[C@@H]1CO2`: the Ki turned out to be 35 nM.

On to `COc1ccc2c(c1)C1=NOC(CN3CCN(C/C=C/c4ccccc4)CC3)C1CO2` (centres undefined), for which the Ki amounted to 14 nM.

Regarding `COc1ccc2c(c1)OCC1C2=NOC1CN1CCN(C/C=C/c2ccccc2)CC1` (centres undefined), the Ki was determined as 19 nM.

`COc1cc2c(cc1OC)C1=NOC(CN3CCN(CCCc4ccccc4)CC3)C1CO2` (centres undefined): the Ki was determined as 10 nM.

In turn, `COc1cc2c(cc1OC)C1=NOC(CN3CCN(Cc4ccccc4)CC3)C1CO2` (centres undefined) yielded a Ki of 158 nM.

`COc1cc2c(cc1OC)C1=NOC(CN3CCN(Cc4ccc5ncccc5c4)CC3)C1CO2` (centres undefined) had a Ki of 8.1 nM.

`COc1cc2c(cc1OC)C1=NOC(CN3CCN(Cc4cccc5ccccc45)CC3)C1CO2` (centres undefined): the Ki came out at 3.9 nM.

With `COc1cc2c(cc1OC)C1=NOC(CN3CCN(Cc4cnc5ccccc5c4)CC3)C1CO2` (centres undefined), the Ki is 14 nM.

For `COc1cc2c(cc1OC)C1=NOC(CN3CCN(CCc4ccccc4)CC3)C1CO2` (centres undefined), the affinity corresponds to a Ki of 199 nM.

As to `COc1cc2c(cc1OC)C1=NOC(CN3CCN(C/C=C/c4ccccc4)CC3)C1CO2` (centres undefined), the Ki came out at 8.3 nM.

In the case of `COc1cc2c(cc1OC)C1=NOC(CN3CCN(Cc4csc5ccccc45)CC3)C1CO2` (centres undefined), affinity was put at a Ki of 7.2 nM.

On to `COc1cc2c(cc1OC)C1=NOC(CN3CCN(Cc4cc5ccccc5s4)CC3)C1CO2` (centres undefined), for which the Ki came out at 5 nM.

As to `COc1cc2c(cc1OC)C1=NO[C@@H](CN3CCN(C/C=C/c4ccccc4)CC3)[C@@H]1CO2` (stereo in doubt; (+)5), the affinity corresponds to a Ki of 1.2 nM.

On to `COc1cc2c(cc1OC)C1=NO[C@@H](CN3CCN(C/C=C(\C)c4ccccc4)CC3)[C@@H]1CO2` (stereo in doubt; (+)15g), for which the Ki turned out to be 4.5 nM.

In turn, `COc1cc2c(cc1OC)C1=NO[C@@H](CN3CCN(C/C=C/c4ccccc4)CC3)[C@@H]1CO2` (stereo in doubt; (-)5) had a Ki of 3.4 nM.

With `COc1cc2c(cc1OC)C1=NO[C@@H](CN3CCN(C/C=C(\C)c4ccccc4)CC3)[C@@H]1CO2` (stereo in doubt; (-)15g), the Ki came out at 10 nM.
